Measurements: patent publication US10160729B2, “Hsp70 modulators and methods for making and using the same” (Memorial Sloan Kettering Cancer Center, priority 2014, dated 2018)

System: MOLM-13 cells
Assay: Caspase cleavage assay (Caspase3, 7 activation)
Format: cell-based
Conditions: Homo sapiens, 16 h treatment, caspase substrate Z-DEVD-R110, read-out: c* Concentration at which 50% of the maximum signal was achieved (caspase activation)
How it was run: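 Cells (30,000/well, RPMI) treated 16 h with compound or DMSO in triplicate, then given buffer with 10 mM HEPES pH 7.5, 2 mM EDTA, 0.1% CHAPS and 25 μM Z-DEVD-R110. Fluorescence read once signal stabilized; results given as percentage increase in apoptotic cells versus DMSO-treated control.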

| SMILES | EC50 [nM] |
| --- | --- |
| COc1cccc(COc2nc(N3CCN(C)C[C@H]3C)ncc2Sc2ccc(C(N)=O)cc2)c1 [compound 193, (R)-4-((2-(2,4-dimethylpiperazin-1-yl)-4-((3-methoxybenzyl)oxy)pyrimidin-5-yl)thio)benzamide] | ≥ 1200 |
| C[C@@H](Oc1nc(N2CCN(C)CC2)ncc1Sc1ccc(C(N)=O)cc1)c1ccc(F)cc1 [100o, (R)-4-((4-(1-(4-Fluorophenyl)ethoxy)-2-(4-methylpiperazin-1-yl)pyrimidin-5-yl)thio)benzamide] | ≥ 1200 |
| CN1CCN(c2ncc(Sc3ccc(C(N)=O)c(Cl)c3)c(OCc3ccc(F)c(O)c3)n2)CC1 [compound 127, 2-Chloro-4-((4-((4-fluoro-3-hydroxybenzyl)oxy)-2-(4-methylpiperazin-1-yl)pyrimidin-5-yl)thio)benzamide] | 400 to 1000 |
| COc1cc(COc2nc(N3CCN(C)CC3)ncc2Sc2ccc(C(N)=O)c(Cl)c2)ccc1F [compound 111, 2-Chloro-4-((4-((4-fluoro-3-methoxybenzyl)oxy)-2-(4-methylpiperazin-1-yl)pyrimidin-5-yl)thio)benzamide] | < 200 |
| CC(C)c1cccc(COc2nc(N3CCN(C)CC3)ncc2Sc2ccc(C(N)=O)c(C(F)(F)F)c2)c1 [compound 331, 4-((4-((3-Isopropylbenzyl)oxy)-2-(4-methylpiperazin-1-yl)pyrimidin-5-yl)thio)-2-(trifluoromethyl)benzamide] | ≥ 1200 |
| COc1ccc(F)c(COc2nc(N3CCN(C)CC3)ncc2Sc2ccc(C(N)=O)c(Cl)c2)c1 [compound 109] | < 200 |
| CC(=O)c1ccc(Sc2cnc(N3CCN(C)CC3)nc2OCc2ccccc2)cc1 [compound 36, 1-(4-((4-(Benzyloxy)-2-(4-methylpiperazin-1-yl)pyrimidin-5-yl)thio)phenyl)ethanone] | 1000 to 1200 |
| COc1cccc(COc2nc(N3CCNC(=O)C3)ncc2Sc2ccc(C(N)=O)cc2)c1 [compound 319, 4-((4-((3-Methoxybenzyl)oxy)-2-(3-oxopiperazin-1-yl)pyrimidin-5-yl)thio)benzamide] | ≥ 1200 |
| CN1CCN(c2ncc(Sc3ccc(C(N)=O)c(Cl)c3)c(OCc3ccc(F)c(Br)c3)n2)CC1 [compound 114, 4-((4-((3-Bromo-4-fluorobenzyl)oxy)-2-(4-methylpiperazin-1-yl)pyrimidin-5-yl)thio)-2-chlorobenzamide] | < 200 |
| C#CCN1CCN(c2ncc(Sc3ccc(C(N)=O)cc3)c(OCc3cccc(OC)c3)n2)CC1 [compound 198, 4-((4-((3-Methoxybenzyl)oxy)-2-(4-(prop-2-yn-1-yl)piperazin-1-yl)pyrimidin-5-yl)thio)benzamide] | < 200 |
| NC(=O)c1ccc(Sc2cnc(N3CCN(Cc4nccs4)CC3)nc2OCc2cccc(Cl)c2)cc1C(F)(F)F [compound 229, 4-((4-((3-Chlorobenzyl)oxy)-2-(4-(thiazol-2-ylmethyl)piperazin-1-yl)pyrimidin-5-yl)thio)-2-(trifluoromethyl)benzamide] | 200 to 400 |
| COc1c(F)ccc(COc2nc(N3CCN(C)CC3)ncc2Sc2ccc(N)nc2)c1F [compound 158, 5-((4-((2,4-Difluoro-3-methoxybenzyl)oxy)-2-(4-methylpiperazin-1-yl)pyrimidin-5-yl)thio)pyridin-2-amine] | < 200 |
| CN1CCN(c2ncc(Sc3ccc(C(N)=O)cc3)c(NCc3ccccc3)n2)CC1 [compound 102, 4-((4-(Benzylamino)-2-(4-methylpiperazin-1-yl)pyrimidin-5-yl)thio)benzamide] | 200 to 400 |
| COc1cccc(COc2nc(N3CCN(C(C)C)CC3)ncc2Sc2ccc(C(N)=O)cc2)c1 [190b, 4-((2-(4-Isopropylpiperazin-1-yl)-4-((3-methoxybenzyl)oxy)pyrimidin-5-yl)thio)benzamide] | 200 to 400 |
| CN1CCN(c2ncc(Sc3ccc(C(N)=O)cc3)c(OCc3cccc(N4CCCC4)c3)n2)CC1 [100b, 4-((2-(4-Methylpiperazin-1-yl)-4-((3-(pyrrolidin-1-yl)benzyl)oxy)pyrimidin-5-yl)thio)benzamide] | 200 to 400 |
| CN1CCN(c2ncc(Sc3ccc(N)nc3)c(OCc3ccc(F)c(Cl)c3)n2)CC1 [compound 154, 5-((4-((3-Chloro-4-fluorobenzyl)oxy)-2-(4-methylpiperazin-1-yl)pyrimidin-5-yl)thio)pyridin-2-amine] | < 200 |
| CN1CCN(c2ncc(Sc3cccc(C#N)c3)c(OCc3ccccc3)n2)CC1 [compound 47, 3-((4-(Benzyloxy)-2-(4-methylpiperazin-1-yl)pyrimidin-5-yl)thio)benzonitrile] | 400 to 1000 |
| CN1CCN(c2ncc(Sc3ccc(C(N)=O)c(C(F)(F)F)c3)c(OCc3cccc(N(C)C)c3)n2)CC1 [compound 139, 4-((4-((3-(Dimethylamino)benzyl)oxy)-2-(4-methylpiperazin-1-yl)pyrimidin-5-yl)thio)-2-(trifluoromethyl)benzamide] | < 200 |
| CN1CCN(c2ncc(Oc3ccc(C(N)=O)cc3)c(OCc3ccccc3)n2)CC1 [compound 282, 4-((4-(Benzyloxy)-2-(4-methylpiperazin-1-yl)pyrimidin-5-yl)oxy)benzamide] | ≥ 1200 |
| CN(C)[C@@H]1CCN(c2ncc(Sc3ccc(C(N)=O)cc3)c(OCc3ccnc(N)c3)n2)C1 [compound 206, (R)-4-((4-((2-Aminopyridin-4-yl)methoxy)-2-(3-(dimethylamino)pyrrolidin-1-yl)pyrimidin-5-yl)thio)benzamide] | 400 to 1000 |
| CN1CCN(c2ncc(Sc3ccc(C(N)=O)c(C(F)(F)F)c3)c(OCc3ccc(F)c(Cl)c3)n2)CC1 [compound 132, 4-((4-((3-Chloro-4-fluorobenzyl)oxy)-2-(4-methylpiperazin-1-yl)pyrimidin-5-yl)thio)-2-(trifluoromethyl)benzamide] | < 200 |
| COc1cccc(COc2nc(N3CCN(C)C(=O)C3)ncc2Sc2ccc(C(N)=O)cc2)c1 [190t, 4-((4-((3-Methoxybenzyl)oxy)-2-(4-methyl-3-oxopiperazin-1-yl)pyrimidin-5-yl)thio) benzamide] | < 200 |
| COc1cc(COc2nc(N3CC[C@@H](N)C3)ncc2Sc2ccc(C(N)=O)c(Cl)c2)ccc1F [compound 213, (R)-4-((2-(3-Aminopyrrolidin-1-yl)-4-((4-fluoro-3-methoxybenzyl)oxy)pyrimidin-5-yl)thio)-2-chlorobenzamide] | ≥ 1200 |
| COc1cc(COc2nc(N3CCN(C)CC3)ncc2Sc2ccc(C(N)=O)c(C(F)(F)F)c2)ccc1F [compound 137, 4-((4-((4-Fluoro-3-methoxybenzyl)oxy)-2-(4-methylpiperazin-1-yl)pyrimidin-5-yl)thio)-2-(trifluoromethyl)benzamide] | < 200 |
| COc1cccc(COc2nc(N3CCCN(C)CC3)ncc2Sc2ccc(C(N)=O)cc2)c1 [190h] | ≥ 1200 |
| COc1cccc(COc2nc(N3CCN(CC4CC4)CC3)ncc2Sc2ccc(C(N)=O)cc2)c1 [190q, 4-((2-(4-(Cyclopropylmethyl)piperazin-1-yl)-4-((3-methoxybenzyl)oxy)pyrimidin-5-yl)thio)benzamide] | < 200 |
| COc1cncc(COc2nc(N3CCN(C)CC3)ncc2Sc2ccc(C(N)=O)c(Cl)c2)c1 [compound 125, 2-Chloro-4-((4-((5-methoxypyridin-3-yl)methoxy)-2-(4-methylpiperazin-1-yl)pyrimidin-5-yl)thio)benzamide] | < 200 |
